In assay [1] the test system is Plasmodium falciparum T96 Zellinie A. Briefly: Growth inhibition of chloroquine-sensitive P. falciparum cultured in human erythrocytes. The assay is classed as cell-based. As to conditions: for IC20 / IC50: Plasmodium falciparum, Erythrocyte; for IC50: over 2 cycles. An excerpt:
(§1) • a) Durch konventionelles Züchten des Stammes Plasmodium falciparum T96 in einer 2 % (V/V) Suspension von humanen Erythrozyten wird der Grundorganismus-Zellinie A fortgepflanzt, welche eine normale Empfindlichkeit gegenüber Chloroquin aufweist. • b) Zellinie A des obigen Stammes wird unter analogen Standardbedingungen wie unter a) gezüchtet, jedoch mit Zusatz von immer ansteigenden Konzentrationen von Chloroquin, bis eine Chloroquinresistente Zellinie B resultiert, welche weiterhin in Kulturmedien mit einer 500 nM-Konzentration von Chloroquin andauernd normales Wachstum (dieselbe Wachstumsraten wie Zellinie A) aufweist.
(§2) • I. Die Züchtung von Testorganismen erfolgt unter den für Züchtung von Plasmodien üblichen Bedingungen auf einer 2 % Suspension von humanen Erythrozyten, supplementiert mit 50 mg/1 Hypoxanthin und gegebenenfalls unter Zugabe der getesteten Hemmsubstanz in gewünschter Konzentration. Die initiale Parasitämie (- der prozentuelle Anteil der zu Beginn von Plasmodien infizierten Erythrozyten) beträgt 1-2 %. Das Resultat (Hemmwirkung) wird als IC50 ausgewertet, d.h. jene Konzentration des Wirkstoffes, die eine Senkung der finalen Parasitämie um 50 %, d.h. eine 50%ige Hemmung des Wachstums, verursacht. • II. In einer alternativen Versuchsanordnung wird beim Einhalten aller übrigen Bedingungen ohne Zugabe von Hypoxanthin und mit einer initialen Parasitämie von 0,5 % gearbeitet.

Assay [2] deals with Plasmodium falciparum T96 Chloroquinresistente Zellinie B. Briefly: Growth inhibition of chloroquine-resistant P. falciparum cultured in human erythrocytes. The assay is classed as cell-based. To be noted: for IC50: Plasmodium falciparum, Erythrocyte, over 2 cycles.
From the text: as §1, §2

Assay [3] relates to Plasmodium falciparum in Kultur an menschlichen Erythrozyten. To be noted: culture on human erythrocytes; cited from earlier work.
The next assay has as its system P. vinckei. To be noted: cited from earlier work.

The text below walks through data of patent publication EP0214933A2, “Mixture preparations for the treatment of malaria” (CIBA-GEIGY AG, priority 1985, dated 1987).

SMILES strings stand for the structures. Read-outs that look alike come from different tables or passages of the source.

By IC20 is commonly meant the concentration needed for an effect of 20%. In general, IC50 refers to the concentration needed to halve the response being measured. As for `CCN(CC)CCCC(C)Nc1ccnc2cc(Cl)ccc12` (stereo not drawn) [Chloroquin, 7-Chlor-4-(4-diethylamino-l-methylbutylamino)chinolin], the IC20 in assay [1] came out at 0.01 µM. Moreover, the 50% inhibitory concentration (IC50) in assay [1] (Versuchsanordnung I (50 mg/l hypoxanthine, initial parasitaemia 1-2 %)) is 0.05 µM; in assay [1] (Versuchsanordnung II (no hypoxanthine, initial parasitaemia 0,5 %)), 0.01 to 0.015 µM; in assay [2] (Versuchsanordnung I), roughly 0.8 µM. For the same compound, the Vermehrungsfaktor in assay [2] (Versuchsanordnung I, with 500 nM chloroquine in the medium, same as Zellinie A without chloroquine (within 48 hours)) is recorded as 7-9.
Take `CC(=O)N(O)CCCCCNC(=O)CCC(=O)N(O)CCCCCNC(=O)CCC(=O)N(O)CCCCCN` [Desferrioxamin B (Mesylat)]: the IC20 in assay [1] (Versuchsanordnung I, Hauptversuch II, read-out: IC20) was 9 µM.
On to `CC(=O)N(O)CCCCCNC(=O)CCC(=O)N(O)CCCCCNC(=O)CCC(=O)N(O)CCCCCN` [Desferrioxamin B, 6,17,28-Trihydroxy-7,10,18,21,29-pentaoxo-6,11,17,22,28-pentaaza-triacontanylamin], for which the “Wachstum (in vitro)” value in assay [3] is on record as “nicht nur in ihrem Wachstum gehemmt, sondern auch getötet”. For the same compound, the “Wachstum des Parasiten” value in the assay on P. vinckei (0,2 g/kg) is “deutlich hemmt”; in the assay with P. vinckei (1,0 g/kg) it was “vollständig tötet”. The IC50 in assay [1] (Versuchsanordnung I, read-out: IC50) was 17 ± 3 µM; in assay [1] (Versuchsanordnung II, read-out: IC50), 5 ± 2 µM; in assay [2] (Versuchsanordnung I, without chloroquine in the test medium), 6 ± 1.5 µM; in assay [2] (Versuchsanordnung II, without chloroquine in the test medium), 2 ± 1 µM. Moreover, in assay [2] (in the presence of a chloroquine concentration inactive by itself, compared with no chloroquine), the “Konzentration für dieselbe Wachstumshemmung in the presence of chloroquine” value is given as “halbiert sich noch weiter”. Also, in assay [2] (without chloroquine, compared with normally sensitive strain under the same conditions), the “Konzentration für dieselbe Wachstumshemmung, resistant strain compared with sensitive strain” value is reported as “etwa dreimal niedrigeren Konzentration”.
In the case of `COc1ncnc(NS(=O)(=O)c2ccc(N)cc2)c1OC` [Sulfadoxine], the “Wachstumshemmung (result in words)” value in assay [1] (Hauptversuch II with this substance in place of chloroquine, combined with Desferrioxamin B) is listed as “Analoge Resulte”.
